In brackets after ≈: the same amount, converted by molar mass. Activity calls are given as the source filed them. The rule behind the calls is not given here.
Key:
[1] = Inhibition of beta-hematin formation after 16 hrs; assay type: physicochemical
Vero = experiment: Cytotoxicity against African green monkey Vero cells by neutral red uptake assay; assay type: cell-based; conditions: Chlorocebus sabaeus
Pichia kudriavzevii = experiment: Antifungal activity against Candida krusei by broth microdilution assay; assay type: functional, organism-based
Staphylococcus aureus [2] = experiment: Antibacterial activity against methicillin-resistant Staphylococcus aureus up to 20 ug/ml; assay type: functional, organism-based
SK-MEL = experiment: Cytotoxicity against human SK-MEL cells by neutral red uptake assay; assay type: cell-based
Aspergillus fumigatus = experiment: Antifungal activity against Aspergillus fumigatus by broth microdilution assay; assay type: functional, organism-based
Escherichia coli = experiment: Antibacterial activity against Escherichia coli; assay type: functional, organism-based
LLC-PK1 = experiment: Cytotoxicity against pig LLC-PK1 cells by neutral red uptake assay; assay type: cell-based; conditions: Sus scrofa
Cryptococcus neoformans = experiment: Antifungal activity against Cryptococcus neoformans by broth microdilution assay; assay type: functional, organism-based
Staphylococcus aureus [3] = experiment: Antibacterial activity against Staphylococcus aureus; assay type: functional, organism-based
SK-OV-3 = experiment: Cytotoxicity against human SKOV3 cells by neutral red uptake assay; assay type: cell-based
[4] = system: Mycobacterium intracellulare; experiment: Antibacterial activity against Mycobacterium intracellulare up to 20 ug/ml; assay type: functional, organism-based
Staphylococcus aureus [5] = experiment: Antibacterial activity against methicillin-resistant Staphylococcus aureus; assay type: functional, organism-based
Plasmodium berghei [6] = experiment: Antimalarial activity against Plasmodium berghei infected in mouse assessed as reduction in parasitemia at 100 mg/kg/day, po for 4 days measured up to day 14; assay type: functional
[7] = Selectivity index, ratio of IC50 for African green monkey Vero cells to IC50 for chloroquine-resistant Plasmodium falciparum W2; assay type: toxicity, cell-based; conditions: read-out: Ratio IC50
Candida albicans = experiment: Antifungal activity against Candida albicans by broth microdilution assay; assay type: functional, organism-based
[8] = system: Mycobacterium intracellulare; experiment: Antibacterial activity against Mycobacterium intracellulare; assay type: functional, organism-based
KB = experiment: Cytotoxicity against human KB cells by neutral red uptake assay; assay type: cell-based
[9] = Selectivity index, ratio of IC50 for African green monkey Vero cells to IC50 for chloroquine-sensitive Plasmodium falciparum D6; assay type: toxicity, cell-based; conditions: read-out: Ratio IC50
Leishmania donovani = experiment: Antileishmanial activity against Leishmania donovani promastigotes by Alamar Blue assay; assay type: functional, organism-based
Pseudomonas aeruginosa = experiment: Antibacterial activity against Pseudomonas aeruginosa; assay type: functional, organism-based
BT-549 = experiment: Cytotoxicity against human BT549 cells by neutral red uptake assay; assay type: cell-based
Plasmodium falciparum [10] = experiment: Antimalarial activity against chloroquine-sensitive Plasmodium falciparum D6 by lactate dehydrogenase assay; assay type: functional, organism-based; conditions: Plasmodium falciparum, D6; read-out: IC50
Plasmodium falciparum [11] = experiment: Antimalarial activity against chloroquine-resistant Plasmodium falciparum W2 by lactate dehydrogenase assay; assay type: functional, organism-based; conditions: Plasmodium falciparum, W2; read-out: IC50
Nakaseomyces glabratus = experiment: Antifungal activity against Candida glabrata by broth microdilution assay; assay type: functional, organism-based
Plasmodium berghei [12] = experiment: Antimalarial activity against Plasmodium berghei infected in mouse assessed as reduction in parasitemia at 25 mg/kg/day, po for 4 days measured up to day 60 relative to control; assay type: functional; design: scale not given: the % may be the effect or the level left
Plasmodium berghei [13] = experiment: Antimalarial activity against Plasmodium berghei infected in mouse assessed as reduction in parasitemia at 50 mg/kg/day, po for 4 days measured up to day 60 relative to control; assay type: functional; design: scale not given: the % may be the effect or the level left
Plasmodium berghei [14] = experiment: Antimalarial activity against Plasmodium berghei infected in mouse assessed as reduction in parasitemia at 100 mg/kg/day, po for 4 days measured up to day 60 relative to control; assay type: functional; design: scale not given: the % may be the effect or the level left
Plasmodium berghei [15] = experiment: Antimalarial activity against Plasmodium berghei infected in mouse assessed as reduction in parasitemia at 10 mg/kg/day, po for 4 days measured up to day 7; assay type: functional, organism-based

SMILES | IC50 [1] [µM] | IC50 (Vero) [µg/mL] | Activity (Pichia kudriavzevii) | IC50 (SK-MEL) [µg/mL] | Activity (Aspergillus fumigatus) | Activity (Escherichia coli) | IC50 (LLC-PK1) [µg/mL] | IC50 (Cryptococcus neoformans) [µg/mL] | MFC (Cryptococcus neoformans) [µg/mL] | MIC (Cryptococcus neoformans) [µg/mL] | IC50 (SK-OV-3) [µg/mL] | IC50 (Staphylococcus aureus [5]) [µg/mL] | Activity (Plasmodium berghei [6]) | selectivity ratio [7] | Activity (Candida albicans) | IC50 [8] [µg/mL] | IC50 (KB) [µg/mL] | selectivity ratio [9] | IC50 (Leishmania donovani) [µg/mL] | IC90 (Leishmania donovani) [µg/mL] | further results
CCN(CC)CCCC(C)Nc1ccnc2cc(Cl)ccc12 (configuration not stated) [CHLOROQUINE] | 80 |  |  |  |  |  |  |  |  |  |  |  |  |  |  |  |  |  |  |  | 
CCCCOc1c(OC)cc(NC(C)CCCNC(C)CCCNC(C)CCCNC(C)CCCN)c2nccc(CC)c12.Cl (configuration not stated) | 10.7 | > 23.8 | inactive | > 23.8 | inactive | inactive | > 23.8 | 8 | 20 | 20 | > 23.8 | 13.2 | inactive | > 68 | inactive | 15 | > 23.8 | > 48.5 | 3.2 | 7 | Activity (Staphylococcus aureus [2]): inactive; IC50 (Staphylococcus aureus [3]): 13.6 µg/mL; MBC (Staphylococcus aureus [3]): 20 µg/mL; MIC (Staphylococcus aureus [3]): 20 µg/mL; Activity [4]: inactive; MIC (Staphylococcus aureus [5]): 20 µg/mL; Activity (Pseudomonas aeruginosa): inactive; IC50 (BT-549): > 23.8 µg/mL; IC50 (Plasmodium falciparum [10]): 0.49 µg/mL; IC50 (Plasmodium falciparum [11]): 0.35 µg/mL; Activity (Nakaseomyces glabratus): inactive
CCCCCOc1c(OC)cc(NC(C)CCCNC(C)CCCN)c2nccc(CC)c12.Cl (configuration not stated) | 9.6 | > 23.8 | inactive | > 23.8 | inactive | inactive | > 23.8 | 5.8 | 10 | 10 | > 23.8 | 13.4 | inactive | > 132 | inactive | > 20 | > 23.8 | > 45.7 | 3.7 | 7 | IC50 (Staphylococcus aureus [3]): 13.6 µg/mL; MBC (Staphylococcus aureus [3]): 20 µg/mL; MIC (Staphylococcus aureus [3]): 20 µg/mL; Activity [4]: inactive; MBC (Staphylococcus aureus [5]): 20 µg/mL; MIC (Staphylococcus aureus [5]): 20 µg/mL; Activity (Pseudomonas aeruginosa): inactive; IC50 (BT-549): > 23.8 µg/mL; IC50 (Plasmodium falciparum [10]): 0.52 µg/mL; IC50 (Plasmodium falciparum [11]): 0.18 µg/mL; Activity (Nakaseomyces glabratus): inactive
CCCCOc1c(OC)cc(NC(C)CCCNC(C)CCCNC(C)CCCN)c2nccc(CC)c12.Cl (configuration not stated) | 19.7 | > 23.8 | inactive | > 23.8 | inactive | inactive | > 23.8 | 12.1 | 20 | 20 | > 23.8 | > 20 | inactive | > 41 | inactive | > 20 | > 23.8 | > 44 | 14 | 32 | Activity (Staphylococcus aureus [2]): inactive; IC50 (Staphylococcus aureus [3]): 12 µg/mL; MBC (Staphylococcus aureus [3]): 20 µg/mL; MIC (Staphylococcus aureus [3]): 20 µg/mL; Activity [4]: inactive; Activity (Pseudomonas aeruginosa): inactive; IC50 (BT-549): > 23.8 µg/mL; IC50 (Plasmodium falciparum [10]): 0.54 µg/mL; IC50 (Plasmodium falciparum [11]): 0.58 µg/mL; Activity (Nakaseomyces glabratus): inactive
C[C@@H]1CC[C@H]2[C@@H](C)C(=O)O[C@@H]3O[C@@]4(C)CC[C@@H]1[C@]32OO4 [ARTEMISININ] |  |  |  |  |  |  |  |  |  |  |  |  |  | 2640 |  |  |  | 1560 |  |  | 
CCCCCOc1c(OC)cc(NC(C)CCCNC(C)CCCNC(C)CCCNC(C)CCCN)c2nccc(CC)c12.Cl (configuration not stated) | 11.2 | > 23.8 | inactive | > 23.8 | inactive | inactive | > 23.8 | 5.6 | 10 | 10 | > 23.8 | 11 | inactive | > 56.6 | inactive | 17.8 | > 23.8 | > 54 | 3.1 | 7 | IC50 (Staphylococcus aureus [3]): 9.8 µg/mL; MBC (Staphylococcus aureus [3]): 20 µg/mL; MIC (Staphylococcus aureus [3]): 20 µg/mL; Activity [4]: inactive; MBC (Staphylococcus aureus [5]): 20 µg/mL; MIC (Staphylococcus aureus [5]): 20 µg/mL; MIC [8]: 20 µg/mL; Activity (Pseudomonas aeruginosa): inactive; IC50 (BT-549): > 23.8 µg/mL; IC50 (Plasmodium falciparum [10]): 0.44 µg/mL; IC50 (Plasmodium falciparum [11]): 0.42 µg/mL; Activity (Nakaseomyces glabratus): inactive
N=C(N)c1ccc(OCCCCCOc2ccc(C(=N)N)cc2)cc1 [PENTAMIDINE] |  |  |  |  |  |  |  |  |  |  |  |  |  |  |  |  |  |  |  | 3.8 (≈ 11.2 µM) | 
COc1cc(NC(C)CCCNC(C)CCCNC(C)CCCNC(C)CCCN)c2nc(C(C)(C)C)ccc2c1.Cl (configuration not stated) | 10.2 | > 23.8 | inactive | > 23.8 | inactive | inactive | > 23.8 | 10 | 20 | 20 | > 23.8 | 10 | 100% | > 42.5 | inactive | 15 | > 23.8 | > 34 | 1.6 | 7.3 | Activity (Plasmodium berghei [12]): 100%; Activity (Plasmodium berghei [13]): 100%; Activity (Plasmodium berghei [14]): 100%; Activity (Plasmodium berghei [15]): Active; MBC (Staphylococcus aureus [5]): 20 µg/mL; MIC (Staphylococcus aureus [5]): 20 µg/mL; MBC [8]: 20 µg/mL; MIC [8]: 20 µg/mL; Activity (Pseudomonas aeruginosa): inactive; IC50 (BT-549): > 23.8 µg/mL; IC50 (Plasmodium falciparum [10]): 0.7 µg/mL; IC50 (Plasmodium falciparum [11]): 0.56 µg/mL; Activity (Nakaseomyces glabratus): inactive
C[C@@H]1[C@H](O)[C@@H](C)/C=C/C=C/C=C/C=C/C=C/C=C/C=C/[C@H](O[C@@H]2O[C@H](C)[C@@H](O)[C@H](N)[C@@H]2O)C[C@@H]2O[C@](O)(C[C@@H](O)C[C@@H](O)[C@H](O)CC[C@@H](O)C[C@@H](O)CC(=O)O[C@H]1C)C[C@H](O)[C@H]2C(=O)O [AMPHOTERICIN B] |  |  |  |  |  |  |  |  | 1.5 (≈ 1.62 µM) |  |  |  |  |  |  |  |  |  |  | 0.35 (≈ 0.379 µM) | MFC (Nakaseomyces glabratus): 0.625 µg/mL (≈ 0.676 µM); MIC (Nakaseomyces glabratus): 0.31 µg/mL (≈ 0.335 µM)
CCCCCOc1c(OC)cc(NC(C)CCCNC(C)CCCNC(C)CCCN)c2nccc(CC)c12.Cl (configuration not stated) | 20.8 | > 23.8 | inactive | > 23.8 | inactive | inactive | > 23.8 | 5.5 | 10 | 10 | > 23.8 | 9.5 | inactive | > 49.5 | inactive | 16.6 | > 23.8 | > 41.7 | 3.5 | 7 | IC50 (Staphylococcus aureus [3]): 8.6 µg/mL; MBC (Staphylococcus aureus [3]): 20 µg/mL; MIC (Staphylococcus aureus [3]): 20 µg/mL; Activity [4]: inactive; MBC (Staphylococcus aureus [5]): 20 µg/mL; MIC (Staphylococcus aureus [5]): 20 µg/mL; MIC [8]: 20 µg/mL; Activity (Pseudomonas aeruginosa): inactive; IC50 (BT-549): > 23.8 µg/mL; IC50 (Plasmodium falciparum [10]): 0.57 µg/mL; IC50 (Plasmodium falciparum [11]): 0.48 µg/mL; Activity (Nakaseomyces glabratus): inactive
